Read-outs that look alike come from different tables or passages of the source.
Experiments:
K-Ras G12C = target: T1, K-Ras G12C (Homo sapiens, UniProt P01116+P62937, G12C); assay: pERK potency assay in NCI-H358 cells (AlphaLISA SureFire or In-Cell Western); type: cell-based; details: 4 hours incubation
T1 construct: endogenous in cells; host or cells: NCI-H358
Experimental: The purpose of this assay was to measure the ability of test compounds to inhibit K-Ras in cells. […] This procedure measures a decrease in cellular pERK in response to test compounds. The procedure described below in NCI-H358 cells is applicable to K-Ras G12C. […]
NCI-H358 cells were grown and maintained using media and procedures recommended by the ATCC. On the day prior to compound addition, cells were plated in 384-well cell culture plates (40 μl/well) and grown overnight in a 37° C., 5% CO2 incubator. Test compounds were prepared in 10, 3-fold dilutions in DMSO, with a high concentration of 10 mM. On the day of assay, 40 nL of test compound was added to each well of cell culture plate using an Echo550 liquid handler (LabCyte®). Concentrations of test compound were tested in duplicate. After compound addition, cells were incubated 4 hours at 37° C., 5% CO2. Following incubation, culture medium was removed and cells were washed once with phosphate buffered saline.
In some experiments, cellular pERK level was determined using the AlphaLISA SureFire Ultra p-ERK1/2 Assay Kit (PerkinElmer). Cells were lysed in 25 μL lysis buffer, with shaking at 600 RPM at room temperature. Lysate (10 μL) was transferred to a 384-well Opti-plate (PerkinElmer) and 5 μL acceptor mix was added. After a 2-hour incubation in the dark, 5 μL donor mix was added, the plate was sealed, and incubated 2 hours at room temperature. Signal was read on an Envision plate reader (PerkinElmer) using standard AlphaLISA settings. Analysis of raw data was carried out in Excel (Microsoft) and Prism (GraphPad). Signal was plotted vs. the decadal logarithm of compound concentration, and IC50 was determined by fitting a 4-parameter sigmoidal concentration response model.
In other experiments, cellular pERK was determined by In-Cell Western. Following compound treatment, cells were washed twice with 200 μL tris buffered saline (TBS) and fixed for 15 minutes with 150 μL 4% paraformaldehyde in TBS. Fixed cells were washed 4 times for 5 minutes with TBS containing 0.1% Triton X-100 (TBST) and then blocked with 100 μL Odyssey blocking buffer (LI-COR) for 60 minutes at room temperature. […] Cells were washed 4 times for 5 minutes with TBST. Secondary antibody (IR-800CW rabbit, LI-COR, diluted 1:800) and DNA stain DRAQ5 (LI-COR, diluted 1:2000) were added and incubated 1-2 hours at room temperature. Cells were washed 4 times for 5 minutes with TBST. Plates were scanned on a Li—COR Odyssey CLx Imager. Analysis of raw data was carried out in Excel (Microsoft) and Prism (GraphPad). Signal was plotted vs. the decadal logarithm of compound concentration, and IC50 was determined by fitting a 4-parameter sigmoidal concentration response model.

NCI-H358 (K-Ras G12C) = assay: CellTiter-Glo cell viability assay, 5-day treatment, NCI-H358; type: cell-based; details: Homo sapiens, NCI-H358, 120 h
Source text: Determination of Cell Viability in RAS Mutant Cancer Cell Lines
Protocol: CellTiter-Glo® Cell Viability Assay
Note—The following protocol describes a procedure for monitoring cell viability of K-Ras mutant cancer cell lines in response to a compound of the invention. Other RAS isoforms may be employed, though the number of cells to be seeded will vary based on cell line used.
The purpose of this cellular assay was to determine the effects of test compounds on the proliferation of three human cancer cell lines (NCI-H358 (K-Ras G12C), AsPC-1 (K-Ras G12D), and Capan-1 (K-Ras G12V)) over a 5-day treatment period by quantifying the amount of ATP present at endpoint using the CellTiter-Glo® 2.0 Reagent (Promega).
Cells were seeded at 250 cells/well in 40 μL of growth medium in 384-well assay plates and incubated overnight in a humidified atmosphere of 5% CO2 at 37° C. On the day of the assay, 10 mM stock solutions of test compounds were first diluted into 3 mM solutions with 100% DMSO. Well-mixed compound solutions (15 μL) were transferred to the next wells containing 30 μL of 100% DMSO, and repeated until a 9-concentration 3-fold serial dilution was made (starting assay concentration of 10 μM). Test compounds (132.5 nL) were directly dispensed into the assay plates containing cells. The plates were shaken for 15 seconds at 300 rpm, centrifuged, and incubated in a humidified atmosphere of 5% CO2 at 37° C. for 5 days. On day 5, assay plates and their contents were equilibrated to room temperature for approximately 30 minutes. CellTiter-Glo® 2.0 Reagent (25 μL) was added, and plate contents were mixed for 2 minutes on an orbital shaker before incubation at room temperature for 10 minutes. Luminescence was measured using the PerkinElmer Enspire. Data were normalized by the following: (Sample signal/Avg. DMSO)*100. The data were fit using a four-parameter logistic fit.

T1 sequence (P01116 1-188 isoform P01116-2 G12C): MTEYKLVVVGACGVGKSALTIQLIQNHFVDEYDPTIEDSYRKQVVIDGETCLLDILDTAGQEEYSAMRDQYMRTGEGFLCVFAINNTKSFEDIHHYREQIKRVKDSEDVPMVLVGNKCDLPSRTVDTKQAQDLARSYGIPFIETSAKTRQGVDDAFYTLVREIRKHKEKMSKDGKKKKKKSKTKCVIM
T1 sequence (P62937 whole entry): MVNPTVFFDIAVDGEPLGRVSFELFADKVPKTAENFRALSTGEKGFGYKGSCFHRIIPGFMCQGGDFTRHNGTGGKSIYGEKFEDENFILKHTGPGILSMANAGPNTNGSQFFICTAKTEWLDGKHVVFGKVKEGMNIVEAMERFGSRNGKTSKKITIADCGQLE

`CCn1c(-c2cccnc2[C@H](C)OC)c2c3cc(ccc31)N1CCO[C@@H](C[C@H](NC(=O)[C@H](C(C)C)N(C)C(=O)N3CCC4(CC3)CN(C(=O)/C=C/CF)C4)C(=O)N3CCC[C@H](N3)C(=O)OCC(C)(C)C2)C1` (atropisomer, axis not shown) [Example A128] showed an IC50 (K-Ras G12C) greater than 1000 nM and an IC50 (NCI-H358 (K-Ras G12C)) greater than 1000 nM.

With `C=CC(=O)N1COC2(CCN(C(=O)N(C)[C@H](C(=O)N[C@H]3CC4=NC=C(O4)c4ccc5c(c4)c(c(-c4cccnc4[C@H](C)OC)n5CC)CC(C)(C)COC(=O)[C@@H]4CCCN(N4)C3=O)C(C)C)CC2)C1` (atropisomer, axis not shown) [Example A37] the IC50 (K-Ras G12C) was greater than 1000 nM.

For `C=CC(=O)N1CCN(C)C2(CCN(C(=O)N(C)[C@H](C(=O)N[C@H]3C[C@H]4CN(CCO4)c4ccc5c(c4)c(c(-c4cccnc4[C@H](C)OC)n5CC)CC(C)(C)COC(=O)[C@@H]4CCCN(N4)C3=O)C(C)C)CC2)C1` (atropisomer, axis not shown) [Example A189], the IC50 (K-Ras G12C) was greater than 1000 nM.

`CCn1c(-c2cccnc2[C@H](C)OC)c2c3cc(ccc31)C1=CCCN(C1)C[C@H](NC(=O)[C@H](C(C)C)N(C)C(=O)N1CCC3(CCN(C(=O)/C=C/CN(C)C)C3)CC1)C(=O)N1CCC[C@H](N1)C(=O)OCC(C)(C)C2` (atropisomer, axis not shown) [Example A192] gave an IC50 (K-Ras G12C) greater than 1000 nM and an IC50 (NCI-H358 (K-Ras G12C)) greater than 1000 nM.

Compound `C=CC(=O)N1CCOC2(CCN(C(=O)N(C)[C@H](C(=O)N[C@H]3Cc4cncc(n4)-c4ccc5c(c4)c(c(-c4cccnc4[C@H](C)OC)n5CC)CC(C)(C)COC(=O)[C@@H]4CCCN(N4)C3=O)C(C)C)CC2)C1` (atropisomer, axis not shown) [Example A36] has an IC50 (K-Ras G12C) greater than 1000 nM.

Work on `CCn1c(-c2cc(N3CCN(C(=O)OCc4ccccc4)CC3)cnc2[C@H](C)OC)c2c3cc(ccc31)-c1csc(n1)C[C@H](NC(=O)OC(C)(C)C)C(=O)N1CCC[C@H](N1)C(=O)OCC(C)(C)C2` yielded a ring closure, yield of all isomers (from CCn1c(-c2cc(N3CCN(C(=O)OCc4ccccc4)CC3)cnc2[C@H](C)OC)c(CC(C)(C)CO)c2cc(-c3csc(C[C@H](NC(=O)OC(C)(C)C)C(=O)N4CCC[C@@H](C(=O)O)N4)n3)ccc21, ester bond, EDCI/HOBt/DIEA, MeCN, 10.3 mM, 25.0 °C, 16.0 h) of 54.8%.

In the case of `CCn1c(-c2cc(N3CCN4CCCC[C@@H]4C3)cnc2[C@H](C)OC)c2c3cc(ccc31)-c1cccc(c1)C[C@H](NC(=O)OC(C)(C)C)C(=O)N1CCC[C@H](N1)C(=O)OCC(C)(C)C2`, the ring closure, yield of all isomers (from CCn1c(-c2cc(N3CCN4CCCC[C@@H]4C3)cnc2[C@H](C)OC)c(CC(C)(C)CO)c2cc(-c3cccc(C[C@H](NC(=O)OC(C)(C)C)C(=O)N4CCC[C@@H](C(=O)O)N4)c3)ccc21, ester bond, EDCI/HOBt/DIPEA, DCM, 11.3 mM, 25.0 °C, 16.0 h) is reported as 62%.

Work on `C=CC(=O)N1CCOC2(CCN(C(=O)N(C)[C@H](C(=O)N[C@H]3Cc4cncc(c4)-c4ccc5c(c4)c(c(-c4cccnc4[C@H](C)OC)n5CC)CC(C)(C)COC(=O)[C@@H]4CCCN(N4)C3=O)C(C)C)CC2)C1` (atropisomer, axis not shown) [Example A124] yielded an IC50 (K-Ras G12C) greater than 1000 nM.

In the case of `CCn1c(-c2cccnc2[C@H](C)OC)c2c3cc(ccc31)-c1nc(no1)C[C@H](NC(=O)OC(C)(C)C)C(=O)N1CCC[C@H](N1)C(=O)OCC(C)(C)C2`, the ring closure, yield of all isomers (from CCn1c(-c2cccnc2[C@H](C)OC)c(CC(C)(C)CO)c2cc(-c3nc(C[C@H](NC(=O)OC(C)(C)C)C(=O)N4CCC[C@@H](C(=O)O)N4)no3)ccc21, ester bond, EDCI/HOBT/DIPEA, DCM, 6.8 mM, 25.0 °C, 16.0 h) is reported as 18%.

For `CO[C@@H](C)c1ncccc1-c1c2c3cc(ccc3n1CC(F)(F)F)C1CCN(C1)C[C@H](NC(=O)OC(C)(C)C)C(=O)N1CCC[C@H](N1)C(=O)OCC(C)(C)C2`, the ring closure, yield of all isomers (from CO[C@@H](C)c1ncccc1-c1c(CC(C)(C)CO)c2cc(C3CCN(C[C@H](NC(=O)OC(C)(C)C)C(=O)N4CCC[C@@H](C(=O)O)N4)C3)ccc2n1CC(F)(F)F, ester bond, EDCI/HOBt/DIPEA, DCM, 6.97 mM, 25.0 °C, 16.0 h) was 21%.

`C=CC(=O)N1CCOC2(C1)CN(C(=O)N(C)[C@H](C(=O)N[C@H]1C[C@H]3CN(CCO3)c3ccc4c(c3)c(c(-c3cccnc3[C@H](C)OC)n4CC)CC(C)(C)COC(=O)[C@@H]3CCCN(N3)C1=O)C(C)C)C2` (atropisomer, axis not shown) [Example A136] gave an IC50 (K-Ras G12C) greater than 1000 nM.

With `C=CC(=O)N1CC2(CCN(C(=O)N(C)[C@H](C(=O)N[C@H]3C[C@H]4CN(CCO4)c4ccc5c(c4)c(c(-c4cccnc4[C@H](C)OC)n5CC)CC(C)(C)COC(=O)[C@@H]4CCCN(N4)C3=O)C(C)C)CC2)C1` (atropisomer, axis not shown) [Example A121] the IC50 (K-Ras G12C) was greater than 1000 nM.

`CCn1c(-c2cccnc2[C@H](C)OC)c2c3cc(ccc31)-c1cc(C(F)F)cc(n1)C[C@H](NC(=O)[C@H](C(C)C)N(C)C(=O)N1CCC3(CCN(C(=O)/C=C/CN(C)C)C3)CC1)C(=O)N1CCC[C@H](N1)C(=O)OCC(C)(C)C2` (atropisomer, axis not shown) [Example A39] showed an IC50 (NCI-H358 (K-Ras G12C)) greater than 1000 nM.

With `C=CCOC(=O)N[C@H]1Cc2nc(no2)-c2ccc3c(c2)c(c(-c2cccnc2[C@H](C)OC)n3CC)CC(C)(C)COC(=O)[C@@H]2CCCN(N2)C1=O` the ring closure, yield of all isomers (from C=CCOC(=O)NC(Cc1nc(-c2ccc3c(c2)c(CC(C)(C)COC(=O)[C@@H]2CCCNN2)c(-c2cccnc2[C@H](C)OC)n3CC)no1)C(=O)O, amide bond, HATU/DIPEA, DCM, 139.0 mM, 25.0 °C, 16.0 h) was 33%.

`CO[C@@H](C)c1ncccc1-c1c2c3cc(ccc3n1CC(F)(F)F)C1CN(C1)C[C@H](NC(=O)OC(C)(C)C)C(=O)N1CCC[C@H](N1)C(=O)OCC(C)(C)C2` gave a ring closure, yield of all isomers (from CO[C@@H](C)c1ncccc1-c1c(CC(C)(C)CO)c2cc(C3CN(C[C@H](NC(=O)OC(C)(C)C)C(=O)N4CCC[C@@H](C(=O)O)N4)C3)ccc2n1CC(F)(F)F, ester bond, EDCI/HOBt/DIPEA, DCM, 6.45 mM, 30.0 °C, 16.0 h) of 37%.

Compound `C=CC(=O)N1CCOC2(CCN(C(=O)N(C)[C@H](C(=O)N[C@H]3C[C@@]4(C)CN(CCO4)c4ccc5c(c4)c(c(-c4cccnc4[C@H](C)OC)n5CC)CC(C)(C)COC(=O)[C@@H]4CCCN(N4)C3=O)C(C)C)CC2)C1` (atropisomer, axis not shown) [Example A130] has an IC50 (K-Ras G12C) greater than 890 nM.

`CO[C@@H](C)c1ncccc1-c1c2c3cc(ccc3n1CC(F)(F)F)-c1coc(n1)C[C@H](NC(=O)OCc1ccccc1)C(=O)N1CCC[C@H](N1)C(=O)OCC(C)(C)C2` gave a ring closure, yield of all isomers (from CO[C@@H](C)c1ncccc1-c1c(CC(C)(C)COC(=O)[C@@H]2CCCNN2)c2cc(-c3coc(C[C@H](NC(=O)OCc4ccccc4)C(=O)O)n3)ccc2n1CC(F)(F)F, amide bond, EDCI/HOBt/DIPEA, DCM, 6.06 mM, 25.0 °C, 16.0 h) of 21%.

Compound `CO[C@@H](C)c1ncccc1-c1c2c3cc(ccc3n1CC(F)(F)F)C1CCCN(C1)C[C@H](NC(=O)OC(C)(C)C)C(=O)N1CCC[C@H](N1)C(=O)OCC(C)(C)C2` has a ring closure, yield of all isomers (from CO[C@@H](C)c1ncccc1-c1c(CC(C)(C)CO)c2cc(C3CCCN(C[C@H](NC(=O)OC(C)(C)C)C(=O)N4CCC[C@@H](C(=O)O)N4)C3)ccc2n1CC(F)(F)F, ester bond, EDCI/HOBT/DIPEA, DCM, 6.2 mM, 25.0 °C) of 17%.
